Test results published in PMC12700550, “DLL4^+ neutrophils promote Notch1-mediated endothelial PANoptosis to exacerbate acute lung injury in sepsis” (The Journal of Clinical Investigation, 2025).
“And” between values parts separate entries of the source, which are not always exact repeats. Equal entries are not always repeated.

B1: eCIRP: extracellular cold-inducible RNA-binding protein; recombinant murine, produced in our laboratory (protein, UniProt P60824 1-172, looked up)
Cold-inducible RNA-binding …: MASDEGKLFVGGLSFDTNEQALEQVFSKYGQISEVVVVKDRETQRSRGFGFVTFENIDDAKDAMMAMNGKSVDGRQIRVDQAGKSSDNRSRGYRGGSAGGRGFFRGGRSRGRGFSRGGGDRGYGGGRFESRSGGYGGSRDYYASRSQGGSYGYRSSGGSYRDSYDSYATHNE

What was measured:
c-caspase-3 = test: c/t caspase-3 (apoptosis) in PVECs cocultured with neutrophils, Western blot; type: cell-based, mouse; settings: for c/t caspase-3 (Figure 4H): 10 μM peptide, 16 h, individual replicates
Description: Wild-type PVECs (5 × 10^5) were cocultured with sorted DLL4^+ neutrophils (5 × 10^5) or DLL4^– neutrophils (5 × 10^5) and then treated with different dosages of peptides or 10 μM DAPT (Thermo Fisher Scientific), 10 μM NDI (GenScript), or 10 μM NDI scramble (GenScript). Notch1-knockdown PVECs (5 × 10^5) were cocultured with sorted DLL4^+ neutrophils (5 × 10^5). After 16 hours, neutrophils were washed away by PBS, and PVECs were collected for further experiments. Cell viability was evaluated by propidium iodide staining using the FITC Annexin V Apoptosis Detection Kit I (catalog 556547, BD Pharmingen). Cell death was quantified as the percentage of propidium iodide–positive cells by flow cytometry.
PVECs and lung tissue were collected in previous steps. Whole-cell proteins were extracted, and the protein concentration was measured using an ABC protein assay kit (catalog 5000002, Bio-Rad). Proteins were separated using NuPAGE 4%–12% Bis-Tris gels (Invitrogen), transferred to PVDF membranes, and immunoblotted with the antibodies indicated in the figure legends according to the manufacturer’s recommendations. The ZBP1 antibody (catalog PA5-20455; 1:1,000) used in this study was obtained from Thermo Fisher Scientific, and the c-GSDMD (catalog 10137S; 1:250), GSDMD (catalog 39754S; 1:1000), c-caspase-3 (catalog 9661L; 1:250), caspase-3 (catalog 9662S; 1:1,000), p-MLKL (catalog 37333S; 1:250), MLKL (catalog 37705S; 1:1,000), N1ICD (c-Notch1) (catalog 4147S; 1:250), and Notch1 (catalog 3608S; 1:1,000) antibodies were obtained from Cell Signaling Technology. GAPDH (catalog 60004-1-Ig; 1:10,000) and β-actin (catalog A5441, Sigma-Aldrich; 1:5,000) were obtained from ProteinTech. After the blots were incubated with primary antibodies, the membranes were washed 3 times, and the blots were subsequently incubated with the corresponding fluorescent secondary antibody (LI-COR). Bands were detected using an Odyssey FC Dual-Mode Imaging system 2800 (LI-COR).

C57BL/6 mice, CLP sepsis [1] = test: Serum lactate dehydrogenase (LDH), CLP mice; type: in vivo, mouse; set-up: serum LDH (Figure 6C): unit not given here; settings: 20 h; for serum LDH (Figure 6C): 10 mg/kg NDI, individual mice
Description: (§1) Sepsis was induced in mice by cecal ligation and puncture (CLP) as described previously ([45], [46]). Mice were anesthetized with isoflurane to a surgical plane and placed in a supine position. CLP was performed through a midline laparotomy. The abdomen was shaved and disinfected. Through a 2 cm midline incision, the cecum was exposed and then ligated with a 4-0 silk suture 1 cm proximal from the distal cecal extremity. […] A small amount of cecal content was extruded through both holes, and the ligated cecum was returned to the peritoneal cavity. The wound was closed in layers. […] A small amount of cecal content was extruded. […] Vehicle groups received an equivalent volume of PBS, while treatment groups received NDI 10 mg/kg in […] PBS via retro-orbital injection after CLP. This dose was chosen primarily on the basis of our laboratory’s prior experience, we have consistently used this dose in mouse CLP models with reproducible efficacy and without observable toxicity ([39], [44]). Sham-operated animals underwent a laparotomy without CLP. After closure, the mice received a subcutaneous injection of 0.5 mL of normal saline to overcome surgery-induced dehydration. […] All mice were subcutaneously injected with a single dose of 0.1 mg/kg buprenorphine after CLP. Serum levels of alanine aminotransferase, aspartate aminotransferase, and lactate dehydrogenase were determined using specific colorimetric enzymatic assays (Pointe Scientific Inc.) according to the manufacturer’s instructions.

C57BL/6 mice, CLP sepsis [2] = test: Lung water content, CLP mice; type: in vivo, mouse; settings: 20 h; for lung water content (wet weight – dry weight)/wet weight (Figure 6K): 10 mg/kg NDI, individual mice
Description: as §1, with “Lung vascular leakage was quantified using the Evans blue dye–labeled (EBD-labeled) albumin extravasation assay ([48]). […] Sigma-Aldrich) via retro-orbital injection. At 1 hour after EBD administration (4.5 hours after the end” for “Serum levels”, “resuscitation), the lungs were perfused with heparinized (1 U/mL) normal saline via right ventricle injection to remove intravascular dye. The whole lung was dehydrated for 48 hours at 60°C, immersed in formamide (1 mL/g wet weight; Sigma-Aldrich) at 37°C for 48 hours,” for “alanine aminotransferase, aspartate aminotransferase,”, “centrifuged at 5,000g for 30 minutes. The amount of extracted EBD in” for “lactate dehydrogenase were determined using specific colorimetric enzymatic assays (Pointe Scientific Inc.) according to”, “supernatant was quantified by spectrophotometry. The concentration of extravasated EBD-albumin in lung homogenates was expressed as nanograms EBD per milligram of dry lung tissue. Lung water content was calculated as (wet weight – dry weight)/wet weight %.” for “manufacturer’s instructions.”

DLL3 = DLL3 mRNA in eCIRP-treated BMDNs, qPCR; type: cell-based, mouse; settings: for DLL3 mRNA: DLL3-CIRP
Description: mRNA was extracted from lung tissues with TRIzol reagent (Invitrogen, Thermo Fisher Scientific). An equal amount ([…]) of mRNA was reverse-transcribed into cDNA using the reverse transcriptase enzyme (Invitrogen, Thermo Fisher Scientific). qPCR was performed from the diluted cDNA templates with forward and reverse primers (Supplemental Table 4) and SYBR Green PCR Master Mix (Applied Biosystems, Thermo Fisher Scientific) using an Applied Biosystems 7300 real-time PCR machine. Mouse β-actin served as an internal control gene for normalization. Relative expression of mRNA was represented as fold change in comparison with the sham group.
BMDNs (1 × 10^6) were treated with eCIRP (1 μg/mL) for 12 hours, and DLL1, DLL3, and DLL4 were analyzed by qPCR.

[3] = DLL4^+ neutrophil-injected CLP mice, 10 mg/kg

Row | Molecule | effect on c-caspase-3 (c-caspase-3; 10 μM NDI, DLL4^+ neutrophil coculture) | c/t caspase-3 (Figure 4H) (c-caspase-3; DLL4^+ neutrophil coculture) | c/t caspase-3 (Figure 4H) (c-caspase-3; DLL4^– neutrophil coculture) | effect on serum LDH (C57BL/6 mice, CLP sepsis [1]; [3]) | serum LDH (Figure 6C) (C57BL/6 mice, CLP sepsis [1]; DLL4^+ neutrophils + CLP) | serum LDH (Figure 6C) (C57BL/6 mice, CLP sepsis [1]; DLL4^– neutrophils + CLP) | effect on lung water content (C57BL/6 mice, CLP sepsis [2]; [3]) | lung water content (wet weight – dry weight)/wet weight (Figure 6K) (C57BL/6 mice, CLP sepsis [2]; DLL4^+ neutrophils + CLP) | lung water content (wet weight – dry weight)/wet weight (Figure 6K) (C57BL/6 mice, CLP sepsis [2]; DLL4^– neutrophils + CLP) | effect on DLL3 expression (DLL3; BMDNs, eCIRP 1 μg/mL, 12 h) | DLL3 mRNA (DLL3; replicate 1) | DLL3 mRNA (DLL3; replicate 2) | DLL3 mRNA (DLL3; replicate 3) | DLL3 mRNA (DLL3; replicate 4) | DLL3 mRNA (DLL3; replicate 5) | DLL3 mRNA (DLL3; replicate 6)
1 | ECAGSPCHNGGTCEDGI [NDI] | significantly reduced these markers of PANoptosis | 0.8975 and 0.9855 and 1.108 and 1.088 and 1.039 and 1.038 | 0.9343 and 1.21 and 1.29 and 1.079 and 1.0374 and 1.09 | significantly reduced the serum levels of hepatic and cell injury markers and proinflammatory cytokines | 147.333 and 112.563 and 68.952 and 111.973 and 140.948 and 125.756 and 107.496 and 149.824 and 137.164 and 20.8187 and 17.4427 and 47.264 and 66.5947 and 58.344 and 58.9333 and 52.4507 and 35.9493 | 149.691 and 73.0773 and 124.349 and 178.568 and 24.752 and 44.7893 and 34.7707 and 33.0027 and 50.0933 | significantly attenuated these effects, reducing both lung water content and Evans blue dye content | 71.922% and 71.5282% and 71.1472% and 70.6857% and 70.3749% and 72.6514% and 72.546% and 71.2677% and 69.0684% and 72.1189% and 71.6599% and 71.2762% | 69.6732% and 70.471% and 69.6655% and 68.9338% and 68.9855% and 70.575% and 70.9924% and 68.7155% and 69.153% |  |  |  |  |  |  | 
2 | B1 |  |  |  |  |  |  |  |  |  | no significant induction of DLL1 or DLL3 | 0.2832 | 1.673 | 0.009923 | 0.01002 | 0.02772 | 0.1715
